Experimental data: patent US12157741B2, “Macrocyclic inhibitors of DYRK1A” (DANA-FARBER CANCER INSTITUTE, INC., priority 2018, dated 2024)
Like-named read-outs stand apart in the source and are kept apart here.

Tests used:
Format in all cases: binding
various enzymes [1] = target: various enzymes (Homo sapiens, UniProt Q8WU08); details: compound 1 uM
Description: (§1) Ambit profiling was conducted in accordance with the manufacturer's instructions.

various enzymes [2] = target: various enzymes (Homo sapiens, UniProt Q8IYT8); details: compound 1 uM
Description: as §1

various enzymes [3] = target: various enzymes (Homo sapiens, UniProt P27361); details: compound 1 uM
Description: as §1

various enzymes [4] = target: various enzymes (Homo sapiens, UniProt P42680); details: compound 1 uM
Description: as §1

various enzymes [5] = target: various enzymes (Homo sapiens, UniProt P35626); details: compound 1 uM
Description: as §1

various enzymes [6] = target: various enzymes (Homo sapiens, UniProt Q59H18); details: compound 1 uM
Description: as §1

various enzymes [7] = target: various enzymes (Homo sapiens, UniProt P42336, E542K)
Description: as §1

various enzymes [8] = target: various enzymes (Homo sapiens, UniProt Q9P0L2); details: compound 1 uM
Description: as §1

various enzymes [9] = target: various enzymes (Homo sapiens, UniProt Q00536); details: compound 1 uM
Description: as §1

various enzymes [10] = target: various enzymes (Homo sapiens, UniProt Q9UQ88); details: compound 1 uM
Description: as §1

various enzymes [11] = target: various enzymes (Homo sapiens, UniProt O75676); details: compound 1 uM
various enzymes (Homo sapiens, UniProt O75676), sequence (O75676 whole entry): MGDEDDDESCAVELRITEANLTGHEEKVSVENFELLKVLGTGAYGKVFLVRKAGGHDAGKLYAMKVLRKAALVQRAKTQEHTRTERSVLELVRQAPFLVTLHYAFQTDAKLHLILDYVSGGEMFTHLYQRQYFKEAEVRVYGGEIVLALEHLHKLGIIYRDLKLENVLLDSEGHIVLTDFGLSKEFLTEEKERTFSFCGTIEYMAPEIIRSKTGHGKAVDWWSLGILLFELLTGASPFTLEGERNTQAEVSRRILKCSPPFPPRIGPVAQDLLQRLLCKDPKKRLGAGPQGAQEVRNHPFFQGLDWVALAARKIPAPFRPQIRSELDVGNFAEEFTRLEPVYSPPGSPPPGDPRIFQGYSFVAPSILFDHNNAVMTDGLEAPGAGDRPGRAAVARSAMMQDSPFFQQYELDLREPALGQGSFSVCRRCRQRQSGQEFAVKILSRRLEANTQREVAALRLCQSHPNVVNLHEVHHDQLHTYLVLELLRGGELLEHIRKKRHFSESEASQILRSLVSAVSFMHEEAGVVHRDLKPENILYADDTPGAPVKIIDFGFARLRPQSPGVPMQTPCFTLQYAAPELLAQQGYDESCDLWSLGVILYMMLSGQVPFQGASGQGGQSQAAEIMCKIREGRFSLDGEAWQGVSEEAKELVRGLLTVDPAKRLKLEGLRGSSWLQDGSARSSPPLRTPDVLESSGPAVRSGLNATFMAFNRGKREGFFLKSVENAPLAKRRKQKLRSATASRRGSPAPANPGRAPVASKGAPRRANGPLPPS
Description: as §1

various enzymes [12] = target: various enzymes (Homo sapiens, UniProt Q32MK0); details: compound 1 uM
various enzymes (Homo sapiens, UniProt Q32MK0), sequence (Q32MK0 whole entry): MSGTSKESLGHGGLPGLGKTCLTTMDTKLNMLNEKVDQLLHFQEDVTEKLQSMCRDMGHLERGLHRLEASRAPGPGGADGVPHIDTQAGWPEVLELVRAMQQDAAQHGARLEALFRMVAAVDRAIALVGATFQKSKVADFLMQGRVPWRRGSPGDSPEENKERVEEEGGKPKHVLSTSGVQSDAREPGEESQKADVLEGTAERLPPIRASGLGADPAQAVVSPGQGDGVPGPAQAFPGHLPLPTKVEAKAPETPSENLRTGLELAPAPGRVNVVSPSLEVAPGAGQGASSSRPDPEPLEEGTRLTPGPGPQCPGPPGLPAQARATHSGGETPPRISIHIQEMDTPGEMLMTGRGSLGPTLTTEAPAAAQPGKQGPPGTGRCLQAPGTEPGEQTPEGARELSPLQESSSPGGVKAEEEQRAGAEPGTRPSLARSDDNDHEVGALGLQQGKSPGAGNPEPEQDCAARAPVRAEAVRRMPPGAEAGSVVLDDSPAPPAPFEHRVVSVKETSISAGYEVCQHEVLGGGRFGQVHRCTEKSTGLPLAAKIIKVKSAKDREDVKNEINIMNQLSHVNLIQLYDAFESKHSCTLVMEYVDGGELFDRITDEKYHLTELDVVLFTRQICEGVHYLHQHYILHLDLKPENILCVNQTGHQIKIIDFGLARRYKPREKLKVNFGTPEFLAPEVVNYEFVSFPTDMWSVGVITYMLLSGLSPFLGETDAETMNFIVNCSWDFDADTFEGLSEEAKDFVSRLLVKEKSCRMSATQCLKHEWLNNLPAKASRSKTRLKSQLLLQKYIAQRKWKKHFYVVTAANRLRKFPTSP
Description: as §1

various enzymes [13] = target: various enzymes (Homo sapiens, UniProt Q15139); details: compound 1 uM
Description: as §1

various enzymes [14] = target: various enzymes (Homo sapiens, UniProt Q86Y07); details: compound 1 uM
various enzymes (Homo sapiens, UniProt Q86Y07), sequence (Q86Y07 whole entry): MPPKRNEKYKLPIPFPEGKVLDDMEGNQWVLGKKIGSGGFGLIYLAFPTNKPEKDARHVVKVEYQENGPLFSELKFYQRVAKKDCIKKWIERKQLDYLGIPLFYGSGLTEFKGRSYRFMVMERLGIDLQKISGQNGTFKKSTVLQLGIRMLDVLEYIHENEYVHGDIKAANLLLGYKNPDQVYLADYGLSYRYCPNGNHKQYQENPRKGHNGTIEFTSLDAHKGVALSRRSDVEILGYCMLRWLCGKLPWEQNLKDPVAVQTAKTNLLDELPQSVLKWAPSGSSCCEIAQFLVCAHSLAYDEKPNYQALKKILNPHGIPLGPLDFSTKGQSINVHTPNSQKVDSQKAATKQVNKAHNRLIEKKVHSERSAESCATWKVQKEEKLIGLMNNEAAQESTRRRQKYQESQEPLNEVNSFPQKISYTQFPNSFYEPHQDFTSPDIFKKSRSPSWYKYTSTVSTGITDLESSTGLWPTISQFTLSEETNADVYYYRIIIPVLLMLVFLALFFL
Description: as §1

various enzymes [15] = target: various enzymes (Homo sapiens, UniProt Q96PY6); details: compound 1 uM
various enzymes (Homo sapiens, UniProt Q96PY6), sequence (Q96PY6 whole entry): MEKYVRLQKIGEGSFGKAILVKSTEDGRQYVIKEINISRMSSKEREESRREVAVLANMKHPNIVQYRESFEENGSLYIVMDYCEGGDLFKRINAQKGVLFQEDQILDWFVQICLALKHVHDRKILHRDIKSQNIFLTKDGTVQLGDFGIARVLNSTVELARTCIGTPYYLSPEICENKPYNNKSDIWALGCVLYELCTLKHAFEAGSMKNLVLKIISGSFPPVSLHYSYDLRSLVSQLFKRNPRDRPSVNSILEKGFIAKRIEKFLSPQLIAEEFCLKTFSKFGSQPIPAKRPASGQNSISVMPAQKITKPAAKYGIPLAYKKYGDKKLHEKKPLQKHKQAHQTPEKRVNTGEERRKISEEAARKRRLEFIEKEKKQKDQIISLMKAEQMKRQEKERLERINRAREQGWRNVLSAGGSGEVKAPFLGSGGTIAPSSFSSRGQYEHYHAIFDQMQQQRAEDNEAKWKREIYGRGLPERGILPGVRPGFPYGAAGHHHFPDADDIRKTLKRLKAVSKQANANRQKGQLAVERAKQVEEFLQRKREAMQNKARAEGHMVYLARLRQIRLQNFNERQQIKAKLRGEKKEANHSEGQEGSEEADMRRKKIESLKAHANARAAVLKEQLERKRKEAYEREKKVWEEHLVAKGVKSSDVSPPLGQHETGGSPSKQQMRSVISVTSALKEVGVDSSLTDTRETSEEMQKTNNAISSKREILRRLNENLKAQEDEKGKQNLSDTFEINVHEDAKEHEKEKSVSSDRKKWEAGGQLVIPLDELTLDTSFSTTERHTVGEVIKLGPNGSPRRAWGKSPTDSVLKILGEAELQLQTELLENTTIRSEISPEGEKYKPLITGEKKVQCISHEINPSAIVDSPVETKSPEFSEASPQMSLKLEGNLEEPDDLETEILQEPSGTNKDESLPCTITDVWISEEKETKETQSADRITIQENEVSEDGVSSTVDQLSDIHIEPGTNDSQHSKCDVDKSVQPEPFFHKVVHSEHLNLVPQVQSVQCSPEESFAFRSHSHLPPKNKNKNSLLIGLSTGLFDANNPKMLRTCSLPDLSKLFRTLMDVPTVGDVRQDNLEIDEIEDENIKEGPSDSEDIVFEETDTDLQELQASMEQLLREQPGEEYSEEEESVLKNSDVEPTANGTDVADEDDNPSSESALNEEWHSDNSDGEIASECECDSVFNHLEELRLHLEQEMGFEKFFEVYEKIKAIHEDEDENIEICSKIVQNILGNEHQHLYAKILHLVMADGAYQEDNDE
Description: as §1

various enzymes [16] = target: various enzymes (Homo sapiens, UniProt P29376); details: compound 1 uM
Description: as §1

various enzymes [17] = target: various enzymes (Homo sapiens, UniProt O15146); details: compound 1 uM
Description: as §1

various enzymes [18] = target: various enzymes (Homo sapiens, UniProt Q13153); details: compound 1 uM
Description: as §1

various enzymes [19] = target: various enzymes (Homo sapiens, UniProt P35590); details: compound 1 uM
various enzymes (Homo sapiens, UniProt P35590), sequence (P35590 22-1138): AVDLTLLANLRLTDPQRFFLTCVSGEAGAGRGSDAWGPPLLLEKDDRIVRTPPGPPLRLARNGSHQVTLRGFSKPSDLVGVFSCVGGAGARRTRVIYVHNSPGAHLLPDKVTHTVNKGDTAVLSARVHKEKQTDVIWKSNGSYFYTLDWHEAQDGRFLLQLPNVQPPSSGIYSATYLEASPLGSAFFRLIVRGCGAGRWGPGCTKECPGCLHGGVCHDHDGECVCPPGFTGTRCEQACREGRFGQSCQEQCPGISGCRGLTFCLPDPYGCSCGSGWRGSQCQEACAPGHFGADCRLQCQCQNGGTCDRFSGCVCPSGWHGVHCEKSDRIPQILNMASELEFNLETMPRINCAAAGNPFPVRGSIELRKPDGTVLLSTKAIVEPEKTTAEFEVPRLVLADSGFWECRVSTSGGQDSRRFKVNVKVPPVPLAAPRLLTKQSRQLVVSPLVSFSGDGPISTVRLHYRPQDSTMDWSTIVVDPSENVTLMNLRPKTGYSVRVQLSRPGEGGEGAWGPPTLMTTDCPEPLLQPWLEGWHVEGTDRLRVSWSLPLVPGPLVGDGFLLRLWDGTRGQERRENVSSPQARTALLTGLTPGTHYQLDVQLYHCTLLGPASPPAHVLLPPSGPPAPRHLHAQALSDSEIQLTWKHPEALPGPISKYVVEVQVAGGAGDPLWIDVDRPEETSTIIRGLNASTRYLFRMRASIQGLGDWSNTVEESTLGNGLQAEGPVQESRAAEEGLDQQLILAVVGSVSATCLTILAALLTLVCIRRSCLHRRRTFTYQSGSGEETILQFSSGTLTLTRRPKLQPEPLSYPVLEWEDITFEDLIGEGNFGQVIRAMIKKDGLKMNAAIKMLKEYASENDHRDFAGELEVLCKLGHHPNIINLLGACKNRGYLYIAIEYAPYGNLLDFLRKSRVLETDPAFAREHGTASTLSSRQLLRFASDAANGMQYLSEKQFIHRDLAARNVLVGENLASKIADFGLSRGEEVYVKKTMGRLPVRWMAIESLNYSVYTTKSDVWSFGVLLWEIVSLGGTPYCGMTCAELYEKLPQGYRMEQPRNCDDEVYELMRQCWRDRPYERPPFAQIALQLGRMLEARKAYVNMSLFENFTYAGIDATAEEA
Description: as §1

various enzymes [20] = target: various enzymes (Homo sapiens, UniProt Q15746); details: compound 1 uM
Description: as §1

various enzymes [21] = target: various enzymes (Homo sapiens, UniProt P36507); details: compound 1 uM
Description: as §1

various enzymes [22] = target: various enzymes (Homo sapiens, UniProt P42336, H1047Y)
Description: as §1

various enzymes [23] = target: T1, various enzymes (Homo sapiens, UniProt P29323); details: compound 1 uM
T1 sequence (P29323 19-1055): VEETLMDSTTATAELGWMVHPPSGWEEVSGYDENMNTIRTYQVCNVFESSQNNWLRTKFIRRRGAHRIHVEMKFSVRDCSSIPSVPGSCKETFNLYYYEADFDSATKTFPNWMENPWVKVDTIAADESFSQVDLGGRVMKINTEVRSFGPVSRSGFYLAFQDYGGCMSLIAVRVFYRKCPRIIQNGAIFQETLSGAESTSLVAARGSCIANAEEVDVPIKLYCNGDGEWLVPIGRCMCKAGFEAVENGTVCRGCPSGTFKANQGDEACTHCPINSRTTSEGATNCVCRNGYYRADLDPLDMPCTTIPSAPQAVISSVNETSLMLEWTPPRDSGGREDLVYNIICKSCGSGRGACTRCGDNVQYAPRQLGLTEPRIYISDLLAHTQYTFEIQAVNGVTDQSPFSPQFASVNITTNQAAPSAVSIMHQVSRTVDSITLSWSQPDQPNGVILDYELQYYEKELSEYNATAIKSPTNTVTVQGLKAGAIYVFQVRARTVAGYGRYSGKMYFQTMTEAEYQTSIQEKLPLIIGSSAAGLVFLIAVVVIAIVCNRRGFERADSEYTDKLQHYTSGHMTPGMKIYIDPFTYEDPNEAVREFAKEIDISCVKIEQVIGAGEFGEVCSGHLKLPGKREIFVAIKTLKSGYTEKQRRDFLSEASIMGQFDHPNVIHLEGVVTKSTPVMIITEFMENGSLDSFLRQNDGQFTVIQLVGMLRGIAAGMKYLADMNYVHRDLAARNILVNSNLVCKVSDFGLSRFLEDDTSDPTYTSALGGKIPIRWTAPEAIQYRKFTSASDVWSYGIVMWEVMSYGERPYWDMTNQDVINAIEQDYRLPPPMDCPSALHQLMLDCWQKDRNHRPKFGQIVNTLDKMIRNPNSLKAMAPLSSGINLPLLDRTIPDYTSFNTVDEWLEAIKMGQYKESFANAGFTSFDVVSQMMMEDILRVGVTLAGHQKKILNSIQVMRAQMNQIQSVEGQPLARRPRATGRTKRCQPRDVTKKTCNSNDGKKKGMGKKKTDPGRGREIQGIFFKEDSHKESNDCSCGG
Description: as §1

various enzymes [24] = target: various enzymes (Homo sapiens, UniProt P53355); details: compound 1 uM
Description: as §1

various enzymes [25] = target: various enzymes (Homo sapiens, UniProt Q13163); details: compound 1 uM
Description: as §1

various enzymes [26] = target: various enzymes (Homo sapiens, UniProt Q99759); details: compound 1 uM
Description: as §1

various enzymes [27] = target: various enzymes (Homo sapiens, UniProt Q8IY84); details: compound 1 uM
various enzymes (Homo sapiens, UniProt Q8IY84), sequence (Q8IY84 whole entry): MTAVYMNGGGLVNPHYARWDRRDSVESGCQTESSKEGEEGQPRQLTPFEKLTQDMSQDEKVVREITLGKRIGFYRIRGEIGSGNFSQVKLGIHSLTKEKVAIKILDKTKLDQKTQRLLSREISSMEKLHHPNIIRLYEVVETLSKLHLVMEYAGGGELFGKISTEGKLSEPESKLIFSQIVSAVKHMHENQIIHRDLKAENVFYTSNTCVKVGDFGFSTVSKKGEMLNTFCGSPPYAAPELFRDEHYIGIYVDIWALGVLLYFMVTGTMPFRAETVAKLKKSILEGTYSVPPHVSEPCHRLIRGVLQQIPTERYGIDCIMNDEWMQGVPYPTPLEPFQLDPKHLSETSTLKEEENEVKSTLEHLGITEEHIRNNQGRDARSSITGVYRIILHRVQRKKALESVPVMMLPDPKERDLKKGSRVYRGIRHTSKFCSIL
Description: as §1

various enzymes [28] = target: various enzymes (Homo sapiens, UniProt P27448); details: compound 1 uM
Description: as §1

various enzymes [29] = target: various enzymes (Homo sapiens, UniProt Q86V86); details: compound 1 uM
Description: as §1

various enzymes [30] = target: various enzymes (Homo sapiens, UniProt P07332); details: compound 1 uM
Description: as §1

Structure (SMILES)	Ambit profiling: YANK1 (various enzymes [1])	Ambit profiling: ULK2 (various enzymes [2])	Ambit profiling: ERK1 (various enzymes [3])	Ambit profiling: TEC (various enzymes [4])	Ambit profiling: GRK3 (various enzymes [5])	Ambit profiling: TNNI3K (various enzymes [6])	Ambit profiling: MARK1 (various enzymes [8])	Ambit profiling: PCTK1 (various enzymes [9])	Ambit profiling: CDC2L2 (various enzymes [10])	Ambit profiling: RPS6KA4(Kin.Dom.1-N-terminal) (various enzymes [11])	Ambit profiling: RPS6KA4(Kin.Dom.2-C-terminal) (various enzymes [11])	Ambit profiling: MLCK (various enzymes [12])	Ambit profiling: PRKD1 (various enzymes [13])	Ambit profiling: VRK2 (various enzymes [14])	Ambit profiling: NEK1 (various enzymes [15])	Ambit profiling: LTK (various enzymes [16])	Ambit profiling: MUSK (various enzymes [17])	Ambit profiling: PAK1 (various enzymes [18])	Ambit profiling: TIE1 (various enzymes [19])	Ambit profiling: MYLK (various enzymes [20])	further results
CC(C)N1Cc2nn(C)cc2-c2cnc3[nH]cc(c3c2)-c2cn(nc2C(F)(F)F)CCCC1=O [Compound 45, (Z)-5-isopropyl-31-methyl-13-(trifluoromethyl)-11H,21H,31H-5-aza-2(3,5)-pyrrolo[2,3-b]pyridina-1(4,1),3(4,3)-dipyrazolacyclononaphan-6-one]	100	56	100	97	100	72	33	20	100	98	100	99	36	37	100	18	89	69	7.2	37	Ambit profiling: PIK3CA(E542K) (various enzymes [7]; compound 1 uM): 98; Ambit profiling: MEK2 (various enzymes [21]): 12; Ambit profiling: PIK3CA(H1047Y) (various enzymes [22]; compound 1 uM): 84; Ambit profiling: EPHB2 (various enzymes [23]): 77; Ambit profiling: DAPK1 (various enzymes [24]): 92; Ambit profiling: MEK5 (various enzymes [25]): 11; Ambit profiling: MAP3K3 (various enzymes [26]): 0.35; Ambit profiling: NIM1 (various enzymes [27]): 100; Ambit profiling: MARK3 (various enzymes [28]): 32; Ambit profiling: PIM3 (various enzymes [29]): 94; Ambit profiling: FES (various enzymes [30]): 74
COc1c2c(nn1C)CN(C(C)C)C(=O)CCCn1cc(c(C(F)(F)F)n1)-c1c[nH]c3ncc-2cc13 [Compound 50, (Z)-5-isopropyl-35-methoxy-31-methyl-13-(trifluoromethyl)-11H,21H,31H-5-aza-2(3,5)-pyrrolo[2,3-b]pyridina-1(4,1),3(4,3)-dipyrazolacyclononaphan-6-one]	24	96	95	32	85	72	39	66	89	62	100	82	33	20	71	8.7	90	76	9.2	14	Ambit profiling: PIK3CA(E542K) (various enzymes [7]): 85; Ambit profiling: MEK2 (various enzymes [21]): 11; Ambit profiling: PIK3CA(H1047Y) (various enzymes [22]): 100; Ambit profiling: EPHB2 (various enzymes [23]): 55; Ambit profiling: DAPK1 (various enzymes [24]): 65; Ambit profiling: MEK5 (various enzymes [25]): 0; Ambit profiling: MAP3K3 (various enzymes [26]): 0.3; Ambit profiling: NIM1 (various enzymes [27]): 100; Ambit profiling: MARK3 (various enzymes [28]): 43; Ambit profiling: PIM3 (various enzymes [29]): 91; Ambit profiling: FES (various enzymes [30]): 31
